Measurements from ChEMBL document CHEMBL5500324, “The potential of marine-derived piperazine alkaloids: Sources, structures and bioactivities” (Eur J Med Chem, 2024).
Converted amounts (≈) assume the structure as drawn. One block for each molecule: values may come before it.

Legend:
A549 [1] = assay: Cytotoxicity against human A549 cells assessed as reduction in cell viability incubated for 48 hrs by MTT assay; assay type: functional, cell-based; details: A549, 48 h
HCT-116 [2] = assay: Cytotoxicity against human HCT-116 cells assessed as reduction in cell viability incubated for 48 hrs by MTT assay; assay type: functional, cell-based; details: HCT-116, 48 h
HepG2 [3] = assay: Cytotoxicity against human HepG2 cells assessed as reduction in cell growth incubated for 48 hrs by SRB assay; assay type: functional, cell-based; details: HepG2, 48 h
HCT-116 [4] = assay: Cytotoxicity against human HCT-116 cells assessed as reduction in cell viability incubated for 24 hrs by MTT assay; assay type: functional, cell-based; details: HCT-116, 24 h
SF-268 [5] = assay: Cytotoxicity against human SF-268 cells assessed as reduction in cell growth incubated for 48 hrs by SRB assay; assay type: functional, cell-based; details: SF-268, 48 h
HEK293 = assay: Cytotoxicity against HEK293 cells assessed as cell growth inhibition; assay type: functional, cell-based; details: Homo sapiens
RKO = assay: Cytotoxicity against human RKO cells assessed as inhibition of cell growth measured after 48 hrs by MTT assay; assay type: functional, cell-based
NCI-H460 = assay: Cytotoxicity against human NCI-H460 cells assessed as reduction in cell growth incubated for 48 hrs by SRB assay; assay type: functional, cell-based; details: NCI-H460, 48 h
MCF7 [6] = assay: Cytotoxicity against human MCF7 cells assessed as reduction in cell growth incubated for 48 hrs by SRB assay; assay type: functional, cell-based; details: MCF7, 48 h
[7] = Cytotoxicity against human HaCaT cells incubated for 24 hrs by MTS assay; assay type: toxicity, cell-based
A549 [8] = assay: Cytotoxicity against human A549 cells assessed as reduction in cell viability incubated for 48 hrs by Celltiter-Glo assay; assay type: functional, cell-based; details: A549, 48 h
HCT-116 [9] = assay: Cytotoxicity against human HCT-116 cells assessed as reduction in cell viability incubated for 48 hrs by Celltiter-Glo assay; assay type: functional, cell-based; details: HCT-116, 48 h
[10] = Cytotoxicity against human AML1 cells expressing FLT3-ITD mutant assessed as cell viability; assay type: functional, cell-based
HCT-116 [11] = assay: Cytotoxicity against human HCT-116 cells assessed as reduction in cell growth by MTT assay; assay type: functional, cell-based
A549 [12] = assay: Cytotoxicity against human A549 cells assessed as reduction in cell growth by MTT assay; assay type: functional, cell-based
NCI-H1975 = assay: Cytotoxicity against human NCI-H1975 cells assessed as cell growth inhibition by MTT assay; assay type: functional, cell-based
K562 = assay: Cytotoxicity against human K562 cells assessed as cell growth inhibition by MTT assay; assay type: functional, cell-based
HL-60 = assay: Cytotoxicity against human HL-60 cells assessed as cell growth inhibition by MTT assay; assay type: functional, cell-based
A549 [13] = assay: Antiproliferative activity against human A549 cells assessed as reduction in cell viability incubated for 72 hrs by SRB assay; assay type: functional, cell-based; details: A549, 72 h
MDA-MB-231 = assay: Antiproliferative activity against human MDA-MB-231 cells assessed as reduction in cell viability incubated for 72 hrs by SRB assay; assay type: functional, cell-based; details: MDA-MB-231, 72 h
HT-29 = assay: Antiproliferative activity against human HT-29 cells assessed as reduction in cell viability incubated for 72 hrs by SRB assay; assay type: functional, cell-based; details: HT-29, 72 h
SF-268 [14] = assay: Cytotoxicity against human SF-268 cells assessed as inhibition of cell growth incubated for 72 hrs by SRB assay; assay type: functional, cell-based; details: SF-268, 72 h
HepG2 [15] = assay: Cytotoxicity against human HepG2 cells assessed as inhibition of cell growth incubated for 72 hrs by SRB assay; assay type: functional, cell-based; details: HepG2, 72 h
MCF7 [16] = assay: Cytotoxicity against human MCF7 cells assessed as inhibition of cell growth incubated for 72 hrs by SRB assay; assay type: functional, cell-based; details: MCF7, 72 h
A549 [17] = assay: Cytotoxicity against human A549 cells assessed as inhibition of cell growth incubated for 72 hrs by SRB assay; assay type: functional, cell-based; details: A549, 72 h
A549 [18] = assay: Cytotoxicity against human A549 cells assessed as reduction in cell viability incubated for 24 hrs by CCK-8 assay; assay type: functional, cell-based; details: A549, 24 h
HeLa [19] = assay: Cytotoxicity against human HeLa cells assessed as reduction in cell viability incubated for 24 hrs by CCK-8 assay; assay type: functional, cell-based
AGS = assay: Antiproliferative activity against human AGS cells assessed as reduction in cell viability measured for 48 hrs by Cell-Titer Glo assay; assay type: functional, cell-based
MCF7 [20] = assay: Antiproliferative activity against human MCF7 cells assessed as reduction in cell viability incubated for 72 hrs by MTT assay; assay type: functional, cell-based; details: MCF7, 72 h
HCT-116 [21] = assay: Antiproliferative activity against human HCT-116 cells assessed as reduction in cell growth; assay type: functional, cell-based
A549 [22] = assay: Antiproliferative activity against human A549 cells assessed as reduction in cell viability incubated for 72 hrs by CCK-8 assay; assay type: functional, cell-based; details: A549, 72 h
U-937 = assay: Cytotoxicity against human U-937 cells assessed as reduction in cell growth incubated for 48 hrs by CCK-8 assay; assay type: functional, cell-based; details: U-937, 48 h
PC-3 = assay: Cytotoxicity against human PC-3 cells assessed as reduction in cell growth incubated for 48 hrs by CCK-8 assay; assay type: functional, cell-based; details: PC-3, 48 h
HCT-116 [23] = assay: Antiproliferative activity against human HCT-116 cells assessed as reduction in cell viability incubated for 24 hrs by MTT assay; assay type: functional, cell-based; details: HCT-116, 24 h
DU-145 = assay: Cytotoxicity against human DU-145 cells assessed as cell growth inhibition measured after 48 hrs by MTT assay; assay type: functional, cell-based; details: DU-145, 48 h
QG-56 = assay: Cytotoxicity against human QG-56 cells assessed as reduction in cell growth incubated for 24 hrs by MTT assay; assay type: functional, cell-based; details: QG-56, 24 h
HeLa [24] = assay: Cytotoxicity against human HeLa cells assessed as cell growth inhibition; assay type: functional, cell-based
L1210 = assay: Cytotoxicity against mouse L1210 assessed as cell growth inhibition; assay type: functional, cell-based

Structure (SMILES): CC(C)/C=c1/[nH]c(=O)/c(=C/c2ccccc2)n(C)c1=O
IC50 (A549 [1]): 89.4 mg/L (≈ 331 µM) | IC50 (HCT-116 [2]): > 100 mg/L

Structure (SMILES): C=c1c(=O)n2c(cc3ccccc32)c(=O)n1C
IC50 (HepG2 [3]): 2.29 µM | IC50 (HCT-116 [4]): 10.3 µM | IC50 (SF-268 [5]): 3.3 µM | IC50 (HEK293): 30.1 µM | IC50 (RKO): 33.6 µM | IC50 (NCI-H460): 12.3 µM | IC50 (MCF7 [6]): 4.67 µM

Structure (SMILES): CCCCCCCCCC(CC(=O)NCCCN)N1CC(=O)N(O)C(Cc2ccccc2)C1=O (stereo not drawn)
IC50 at 24 h [7]: 50 µM | IC50 (A549 [8]): 43.2 µM | IC50 (HCT-116 [9]): 59.9 µM

Structure (SMILES): CC1(C)C=Cc2c(ccc3c2N[C@@]24N5C(=O)[C@]6(O)CCCN6C(=O)[C@]5(O)C[C@@]32O[C@H](CO)C4(C)C)O1
IC50 [10]: 10 µM

Structure (SMILES): CC(C)C[C@H]1NC(=O)[C@@H](Cc2ccc3c(c2)OCO3)NC1=O
IC50 (A549 [1]): 28.4 mg/L (≈ 93.3 µM) | IC50 (HCT-116 [2]): 45.4 mg/L (≈ 149 µM)

Structure (SMILES): CN1C(=O)[C@]23SSS[C@]1(CO)C(=O)N2[C@H]1Nc2ccccc2C1(C12c4ccccc4N[C@H]1N1C(=O)[C@@]4(CO)SSSS[C@]1(C(=O)N4C)[C@H]2O)[C@@H]3O (stereo partly drawn)
IC50 (HCT-116 [11]): 2.1 µM | IC50 (A549 [12]): 1.9 µM | IC50 (NCI-H1975): 3.6 µM | IC50 (K562): 1.9 µM | IC50 (HL-60): 1.9 µM

IC50 (A549 [13]): 2.7 µM | IC50 (MDA-MB-231): 4.7 µM | IC50 (HT-29): 3.3 µM
Structure (SMILES): CN1C[C@@H](c2c[nH]c3cc(Br)ccc23)NC[C@@H]1c1c[nH]c2ccccc12

Structure (SMILES): CC(C)=CCc1[nH]cnc1/C=C1\NC(=O)CNC1=O
IC50 [10]: 0.22 µM

IC50 (A549 [13]): 20.3 µM | IC50 (MDA-MB-231): 28 µM | IC50 (HT-29): 19.3 µM
Structure (SMILES): CN1C[C@@H](c2c[nH]c3cc(Br)ccc23)N(C)C[C@@H]1c1c[nH]c2cc(Br)ccc12

Structure (SMILES): CN1C(=O)[C@H]2CSC3=C(C(=O)c4ccccc4C3=O)N2C[C@@H]1CO
IC50 (SF-268 [14]): 17 µM | IC50 (HepG2 [15]): 31.2 µM | IC50 (MCF7 [16]): 25.7 µM | IC50 (A549 [17]): 34.4 µM

Structure (SMILES): CC[C@H](C)[C@]1(OC)NC(=O)[C@@H](Cc2ccccc2)N2C(=O)C3=C(NC21)OC=CC=C3 (stereo partly drawn)
IC50 (A549 [18]): 100 µM | IC50 (HeLa [19]): 190 µM

IC50 (AGS): 12 µM | IC50 (MCF7 [20]): 10 µM | IC50 (HCT-116 [21]): 13.8 µM | IC50 (A549 [22]): 12 µM
Structure (SMILES): CC(=O)O[C@H]1C=CC=C2C[C@@]34SS[C@]5(CC6=COC=C[C@H](OC(C)=O)[C@H]6N5C3=O)C(=O)N4[C@@H]21

Structure (SMILES): COc1ccc2c3c(n(CC=C(C)C)c2c1)[C@H](C=C(C)C)N1C(=O)[C@@H]2CCCN2C(=O)[C@@]1(O)[C@H]3OC
IC50 (U-937): 25.3 µM | IC50 (PC-3): 98.7 µM

IC50 (HCT-116 [23]): 0.455 µM
Structure (SMILES): COC1=C(C)C(=O)C2=C(C1=O)[C@H](CO)N1[C@@H](C#N)[C@@H]3[C@@H](O)c4c(O)c(C)c(OC)c(O)c4[C@H]([C@@H]1C2)N3C
IC50 (DU-145): 0.448 µM | IC50 (QG-56): 0.618 µM

IC50 (AGS): 32 µM | IC50 (MCF7 [20]): 36 µM | IC50 (HCT-116 [21]): 21 µM | IC50 (A549 [22]): 23 µM
Structure (SMILES): CC(=O)O[C@H]1C=COC=C2C[C@@]34SS[C@]5(CC6=COC=C[C@H](OC(C)=O)[C@H]6N5C3=O)C(=O)N4[C@@H]21

Structure (SMILES): CN1C(=O)[C@]23SSS[C@]1(C)C(=O)N2[C@@H]1Nc2ccccc2C1(C12c4ccccc4N[C@@H]1N1C(=O)[C@@]4(CO)SSS[C@]1(C(=O)N4C)[C@H]2O)[C@@H]3O (stereo partly drawn)
IC50 (HCT-116 [11]): 0.4 µM | IC50 (A549 [12]): 0.4 µM | IC50 (NCI-H1975): 0.2 µM | IC50 (K562): 0.4 µM | IC50 (HL-60): 1.9 µM

Structure (SMILES): CN1C(=O)[C@]23SSS[C@]1(CO)C(=O)N2[C@H]1Nc2ccccc2C1(C12c4ccccc4N[C@H]1N1C(=O)[C@@]4(CO)SSS[C@]1(C(=O)N4C)[C@H]2O)[C@@H]3O (stereo partly drawn)
IC50 (HCT-116 [11]): 0.3 µM | IC50 (A549 [12]): 0.7 µM | IC50 (NCI-H1975): 0.8 µM | IC50 (K562): 1 µM | IC50 (HL-60): 1.5 µM

Structure (SMILES): CCCCCCCCC[C@@H](CC(=O)NCCCCN)N1CC(=O)N(O)[C@H](Cc2ccccc2)C1=O
IC50 at 24 h [7]: 37.5 µM | IC50 (A549 [8]): 37.9 µM | IC50 (HCT-116 [9]): 39.5 µM

Structure (SMILES): CC1(C)C=Cc2c(ccc3c2NC(=O)[C@@]32C[C@@]34NC(=O)[C@]5(CCCN5C3=O)C[C@H]4C2(C)C)O1 [NOTOAMIDE B]
IC50 (HeLa [24]): 52 mg/L (≈ 116 µM) | IC50 (L1210): 36 mg/L (≈ 80.4 µM)

Structure (SMILES): C/C=C(/C)C(=O)OC[C@H]1C2=C(C[C@H]3[C@H]4C5=C(C[C@@H]([C@H](C#N)N13)N4C)C(=O)C(C)=C(OC)C5=O)C(=O)C(C)=C(OC)C2=O [RENIERAMYCIN M]
IC50 (DU-145): 0.019 µM | IC50 (QG-56): 0.00076 µM
